{"source": "patent US20140331365A1", "about": "(priority 2008, published 2014)", "key": {"soybean root cells": {"test_system": "soybean root cells", "format": "cell-based", "settings": "for stimulation of Avr1b(N)-GFP uptake into soybean roots: after 9 hr"}, "Avr1b(N)-GFP": {"test_system": "Avr1b(N)-GFP", "format": "binding, Phytophthora sojae"}, "AvrL567(N)-GFP": {"test_system": "AvrL567(N)-GFP", "format": "binding, Melampsora lini"}, "soybean leaf cells": {"test_system": "soybean leaf cells", "format": "cell-based"}}, "note": "“Also recorded” adds a separate entry of the source."}
{"compound": "O=P(O)(O)O[C@@H]1C(O)[C@H](OP(=O)(O)O)[C@@H](O)C(O)[C@H]1O", "note": "(stereo partly drawn) [1,3-IP2, Inositol 1,3 diphosphate]", "values": [{"measurement": "inhibition of entry of Avr2-GFP into soybean root cells", "setting": "soybean root cells", "result": "inhibited"}, {"measurement": "inhibition of entry of AvrLm6-GFP into soybean root cells", "setting": "soybean root cells", "result": "inhibited"}]}
{"compound": "O=P(O)(O)OC1[C@@H](O)[C@H](O)C(OP(=O)(O)O)[C@H](O)[C@@H]1O", "note": "(stereo partly drawn) [IP2, Inositol-1,4-diphosphate]", "values": [{"measurement": "inhibition of binding of Avr1b(N)-GFP to PI-4-P-containing liposomes", "setting": "Avr1b(N)-GFP", "result": "inhibited binding"}, {"measurement": "inhibition of binding of AvrL567(N)-GFP to PI-4-P-containing liposomes", "setting": "AvrL567(N)-GFP", "result": "completely block binding"}, {"measurement": "inhibition of entry of Avr2-GFP into soybean root cells", "setting": "soybean root cells", "result": "inhibited"}, {"measurement": "inhibition of entry of AvrLm6-GFP into soybean root cells", "setting": "soybean root cells", "result": "inhibited"}, {"measurement": "inhibition of uptake/entry of Arg9-GFP into soybean root cells", "setting": "soybean root cells", "result": "completely unaffected"}, {"measurement": "inhibition of uptake/entry of Avr1b(N)-GFP into soybean root cells", "setting": "soybean root cells", "result": "almost completely blocked"}, {"measurement": "inhibition of uptake/entry of AvrL567(N)-GFP into soybean root cells", "setting": "soybean root cells", "result": "almost completely blocked"}]}
{"compound": "CCCCCCCC(=O)OC[C@H](COP(=O)(O)OC1[C@H](O)[C@H](O)C(OP(=O)(O)O)[C@H](O)[C@H]1O)OC(=O)CCCCCCC", "note": "(stereo partly drawn) [di-octanoyl-PI-4-P]", "values": [{"measurement": "promotion of uptake of Avr1b(N)-GFP and AvrL567(N)-GFP proteins containing alanine substitutions in the RXLR and dEER motifs", "setting": "soybean root cells", "result": "did not promote the uptake"}, {"measurement": "stimulation of Arg9-GFP uptake in soybean root cells", "setting": "soybean root cells", "result": "does not stimulate uptake"}, {"measurement": "stimulation of AvrL567(N)-GFP uptake into soybean roots", "setting": "soybean root cells", "result": "strongly stimulated"}, {"measurement": "stimulation of Avr1b(N)-GFP uptake into soybean roots", "setting": "soybean root cells", "result": "strong stimulation; also recorded: stimulated"}]}
{"compound": "AAAA", "values": [{"measurement": "ablation", "setting": "soybean leaf cells", "result": 0}]}
{"compound": "Arg9", "values": [{"measurement": "Avr1b function / cell re-entry in particle bombardment assay (reduction of GUS-positive blue spots with Rps1b)", "setting": "soybean leaf cells", "result": "could functionally replace the RXLR2 motif"}]}
{"compound": "phosphatidyl choline [PC]", "values": [{"measurement": "stimulation of Avr1b(N)-GFP uptake into soybean roots", "setting": "soybean root cells", "result": "did not stimulate uptake"}]}
{"compound": "phosphatidyl ethanolamine [PE]", "values": [{"measurement": "stimulation of Avr1b(N)-GFP uptake into soybean roots", "setting": "soybean root cells", "result": "did not stimulate uptake"}]}
{"compound": "phosphatidyl inositol [PI]", "values": [{"measurement": "stimulation of Avr1b(N)-GFP uptake into soybean roots", "setting": "soybean root cells", "result": "did not stimulate uptake"}]}
